In patent US20100160264A1, “CRYSTALLINE SOLID FORMS” (priority 2007, published 2010):
Values after ≈ are worked out from the molar mass of the structure shown.

Columns and labels:
[1] = Stability after storing different crystalline forms of Tigecycline at 80° C. for 7 days (4-Epi-Tigecycline and total impurities); type: physicochemical; settings: for 4-Epi-Tigecycline 7 days at 80° C. / Total impurities 7 days at 80° C.: after storing 7 days at 80° C., in % (unit assumed); for 4-Epi-Tigecycline ambient conditions / Total impurities ambient conditions: before storage, depends on purity of the starting material; for Stability in words (total impurities and 4-Epi-Tigecycline content): 7 days at 80° C.
From the text: A suitable crystalline form of Tigecycline for formulating an anti-infective medicament first of all is required to be thermodynamic stable, in order to avoid formation of degradation products.

[2] = Water content and hygroscopicity: open storage for 24 hours at 80% relative humidity; type: physicochemical; settings: for water content 1 day at 80% rH: open storage 1 day at 80% rH; for water uptake 1 day at 80% rH / Hygroscopicity in words: open storage 24 hours at 80% relative humidity
From the text: Furthermore suitable crystalline forms of Tigecycline should be low hygroscopic, as water uptake may cause the formation of undesired byproducts like e.g. 4-Epi-Tigecycline.

[3] = 30 min
Description: The water solubility determination of the different crystalline forms of Tigecycline was performed on a Perkin Elmer® Lambda 35 UV/VIS spectrometer. The software used was Perkin Elmer® UV WlnLab-5.1.
200 mg of Tigecycline were stirred with 1 ml distilled water at room temperature for 30 minutes. The suspension was filtered through a 0.45 μm filter and 100 μl of the solution were transferred into a 1 L volumetric flask. After filling up to the check mark with distilled water the solution was measured at 347 nm.

[4] = cited from earlier work

Which “4-Epi-Tigecycline 7 days at 80° C.” value ([1]; listed as V) does the source give for CN(C)c1cc(NC(=O)CNC(C)(C)C)c(O)c2c1C[C@H]1C[C@H]3[C@H](N(C)C)C(O)=C(C(N)=O)C(=O)[C@@]3(O)C(O)=C1C2=O [Form V, Tigecycline] here?
The value was 0.18.

And the “Total impurities 7 days at 80° C.” value ([1]; listed as V)?
Its value is 0.37.

And the 4-Epi-Tigecycline ambient conditions ([1]; listed as V)?
The 4-Epi-Tigecycline ambient conditions was less than 0.05%.

What about the Total impurities ambient conditions ([1]; listed as V) of the same compound?
The Total impurities ambient conditions was 0.22%.

And the “water content ambient conditions” value ([2]; listed as V)?
The value was 0.19%.

What about the “water content 1 day at 80% rH” value ([2]; listed as V) of the same compound?
The value was 1.88%.

What about the “water uptake 1 day at 80% rH” value ([2]; listed as V) of the same compound?
The value was 1.69%.

And the “Solubility, Concentration” value [3]?
The value was 134 mg/mL (≈ 229 mM).

Which “Stability in words (total impurities and 4-Epi-Tigecycline content)” value (“Stability in words” below) ([1]; listed as form II) does the source give for CN(C)c1cc(NC(=O)CNC(C)(C)C)c(O)c2c1C[C@H]1C[C@H]3[C@H](N(C)C)C(O)=C(C(N)=O)C(=O)[C@@]3(O)C(O)=C1C2=O [Form II, Tigecycline] here?
The value was “tremendous increase”.

And the “4-Epi-Tigecycline 7 days at 80° C.” value ([1]; listed as II)?
Its value is 10.83.

And the “Total impurities 7 days at 80° C.” value ([1]; listed as II)?
The value was 18.44.

And the 4-Epi-Tigecycline ambient conditions ([1]; listed as II)?
The 4-Epi-Tigecycline ambient conditions was 1.04%.

What about the Total impurities ambient conditions ([1]; listed as II) of the same compound?
Its Total impurities ambient conditions is 1.6%.

What about the “water content ambient conditions” value ([2]; listed as II) of the same compound?
The value was 2.93%.

And the “water content 1 day at 80% rH” value ([2]; listed as II)?
The value was 10.04%.

What about the “water uptake 1 day at 80% rH” value ([2]; listed as II) of the same compound?
The value was 7.11%.

And the “Solubility, Concentration” value [3]?
Its value is 177 mg/mL (≈ 302 mM).

For CN(C)c1cc(NC(=O)CNC(C)(C)C)c(O)c2c1C[C@H]1C[C@H]3[C@H](N(C)C)C(O)=C(C(N)=O)C(=O)[C@@]3(O)C(O)=C1C2=O [Form III, Tigecycline], which “4-Epi-Tigecycline 7 days at 80° C.” value ([1]; listed as III) is on record?
The value was 2.18.

What about the “Total impurities 7 days at 80° C.” value ([1]; listed as III) of the same compound?
The value was 4.46.

What about the 4-Epi-Tigecycline ambient conditions ([1]; listed as III) of the same compound?
The 4-Epi-Tigecycline ambient conditions was 0.16%.

What about the Total impurities ambient conditions ([1]; listed as III) of the same compound?
Its Total impurities ambient conditions is 0.16%.

And the “water content ambient conditions” value ([2]; listed as III)?
The value was 0.69%.

What about the “water content 1 day at 80% rH” value ([2]; listed as III) of the same compound?
The value was 8.01%.

What about the “water uptake 1 day at 80% rH” value [2] of the same compound?
Its value is 7.32%.

What about the “water uptake 1 day at 80% rH” value ([2]; listed as III) of the same compound?
Its value is 7.32%.

And the “Solubility, Concentration” value [3]?
Its value is 174 mg/mL (≈ 297 mM).

Which “4-Epi-Tigecycline 7 days at 80° C.” value ([1]; listed as IV) does the source give for CN(C)c1cc(NC(=O)CNC(C)(C)C)c(O)c2c1C[C@H]1C[C@H]3[C@H](N(C)C)C(O)=C(C(N)=O)C(=O)[C@@]3(O)C(O)=C1C2=O [Form IV, Tigecycline] here?
The value was 0.38.

What about the “Total impurities 7 days at 80° C.” value ([1]; listed as IV) of the same compound?
Its value is 0.87.

And the 4-Epi-Tigecycline ambient conditions ([1]; listed as IV)?
The 4-Epi-Tigecycline ambient conditions was 0.23%.

What about the Total impurities ambient conditions ([1]; listed as IV) of the same compound?
The Total impurities ambient conditions was 0.4%.

And the “water content ambient conditions” value ([2]; listed as IV)?
The value was 2.90%.

What about the “water content 1 day at 80% rH” value ([2]; listed as IV) of the same compound?
The value was 3.33%.

What about the “water uptake 1 day at 80% rH” value ([2]; listed as IV) of the same compound?
The value was 0.43%.

And the “Solubility, Concentration” value [3]?
The value was 183 mg/mL (≈ 312 mM).

With CN(C)c1cc(NC(=O)CNC(C)(C)C)c(O)c2c1C[C@H]1C[C@H]3[C@H](N(C)C)C(O)=C(C(N)=O)C(=O)[C@@]3(O)C(O)=C1C2=O [Tigecycline, (4S,4aS,5aR,12aS)-4,7-Bis(dimethylamino)-9-[[2-[(1,1-dimethylethyl)amino]acetyl]amino]-1,4,4a,5,5a,6,11,12a-octahydro-3,10,12,12a-tetrahydroxy-1,11-dioxo-2-naphthacene carboxamide] as the compound, how does the oral bioavailability [4] read?
Its oral bioavailability is “very limited”.

Which “Stability in words” value ([1]; listed as VI) does the source give for CN(C)c1cc(NC(=O)CNC(C)(C)C)c(O)c2c1C[C@H]1C[C@H]3[C@H](N(C)C)C(O)=C(C(N)=O)C(=O)[C@@]3(O)C(O)=C1C2=O [Form VI, Tigecycline] here?
Its value is “adequate stability data”.

What about the “4-Epi-Tigecycline 7 days at 80° C.” value ([1]; listed as VI) of the same compound?
The value was 0.38.

And the “Total impurities 7 days at 80° C.” value ([1]; listed as VI)?
The value was 0.91.

And the 4-Epi-Tigecycline ambient conditions ([1]; listed as VI)?
The 4-Epi-Tigecycline ambient conditions was 0.17%.

What about the Total impurities ambient conditions ([1]; listed as VI) of the same compound?
Its Total impurities ambient conditions is 0.24%.

What about the “water content ambient conditions” value ([2]; listed as VI) of the same compound?
Its value is 0.18%.

And the “water content 1 day at 80% rH” value ([2]; listed as VI)?
Its value is 0.25%.

What about the Hygroscopicity in words [2] of the same compound?
Its Hygroscopicity in words is “low hygroscopicity”.

What about the “water uptake 1 day at 80% rH” value ([2]; listed as VI) of the same compound?
Its value is 0.07%.

And the “Solubility, Concentration” value [3]?
Its value is 76 mg/mL (≈ 130 mM).

Which “Stability in words” value [1] does the source give for CN(C)c1cc(NC(=O)CNC(C)(C)C)c(O)c2c1C[C@H]1C[C@H]3[C@H](N(C)C)C(O)=C(C(N)=O)C(=O)[C@@]3(O)C(O)=C1C2=O [Form I, Tigecycline] here?
Its value is “tremendous increase”.

And the “4-Epi-Tigecycline 7 days at 80° C.” value ([1]; listed as I)?
Its value is 2.15.

And the “Total impurities 7 days at 80° C.” value ([1]; listed as I)?
Its value is 11.20.

What about the 4-Epi-Tigecycline ambient conditions ([1]; listed as I) of the same compound?
Its 4-Epi-Tigecycline ambient conditions is 0.36%.

And the Total impurities ambient conditions ([1]; listed as I)?
The Total impurities ambient conditions was 0.75%.

And the “water content ambient conditions” value ([2]; listed as I)?
Its value is 2.01%.

And the “water content 1 day at 80% rH” value ([2]; listed as I)?
The value was 5.01%.

And the “water uptake 1 day at 80% rH” value ([2]; listed as I)?
Its value is 3.00%.

And the “Solubility, Concentration” value [3]?
The value was 185 mg/mL (≈ 316 mM).

Which “Stability in words” value ([1]; listed as VIII) does the source give for CN(C)c1cc(NC(=O)CNC(C)(C)C)c(O)c2c1C[C@H]1C[C@H]3[C@H](N(C)C)C(O)=C(C(N)=O)C(=O)[C@@]3(O)C(O)=C1C2=O [Form VIII, Tigecycline] here?
The value was “adequate stability data”.

And the “Stability in words” value ([1]; listed as form VIII)?
Its value is “adequate stability data”.

What about the “4-Epi-Tigecycline 7 days at 80° C.” value ([1]; listed as VIII) of the same compound?
The value was 0.70.

What about the “Total impurities 7 days at 80° C.” value ([1]; listed as VIII) of the same compound?
Its value is 2.13.

What about the 4-Epi-Tigecycline ambient conditions ([1]; listed as VIII) of the same compound?
Its 4-Epi-Tigecycline ambient conditions is 0.15%.

And the Total impurities ambient conditions ([1]; listed as VIII)?
The Total impurities ambient conditions was 0.43%.

What about the “water content ambient conditions” value ([2]; listed as VIII) of the same compound?
Its value is 0.10%.

And the “water content 1 day at 80% rH” value ([2]; listed as VIII)?
Its value is 0.21%.

And the “water uptake 1 day at 80% rH” value ([2]; listed as VIII)?
The value was 0.11%.

What about the Hygroscopicity in words ([2]; listed as form VIII) of the same compound?
The Hygroscopicity in words was “no water uptake at all”.

And the “water uptake 1 day at 80% rH” value ([2]; listed as form VIII)?
The value was 0.11%.

And the “Solubility, Concentration” value [3]?
The value was 141 mg/mL (≈ 241 mM).
